From patent US20110052623A1, “DRIED MICROBIAL CELLS OR MICROORGANISM EXTRACT CONTAINING STABILIZED (SS)-S-ADENOSYL-L-METHIONINE AND METHOD FOR PRODUCTION OF THE DRIED MICROORGANISM CELL OR MICROORGANISM EXTRACT” (KANEKA CORPORATION, priority 2007, published 2011)
Counter-ions that a name gives are not always drawn. Like-named read-outs stand apart in the source and are kept apart here.

Tests used:
[1] = Stabilizing agent: dried yeast cells containing SAM with added compound preserved at 25° C. for 7 days; assay type: physicochemical
Description: The yeast cells obtained in the Reference Example were suspended in deionized water in one-sixth (⅙) of the amount of the culture solution. Each of the compounds listed in table 3 (30% by weight in terms of dry weight) was separately added to the resultant, followed by freezing at −80° C. and lyophilization. Thus, dried yeast cells containing SAM were obtained.

[2] = Bioabsorbability of spray-dried yeast cells containing (SS)-SAM, oral administration (Example 5); assay type: in vivo; conditions: SD rats, 20 g/L SAM at 5 ml/kg b.w.
Description: The obtained dried yeast cells were matured in the presence of silica gel at 40° C. for 7 days. Thus, dried yeast cells containing (SS)-SAM were obtained. The obtained dried yeast cells containing (SS)-SAM were suspended in distilled water to result in an SAM concentration of 20 g/L. The resultant was orally administered to SD rats (male, 17 weeks old) at a dose of 5 ml/kg b.w. […] The resultant was orally administered to rats in the same manner such that comparative control examples were obtained. Before administration and 1, 2, 3, 5, or 8 hours after administration, blood collection was carried out from the jugular vein without any anesthesia and with the use of heparin as an anticoagulant. The plasma components were collected via centrifugation. A 0.4 g/L trichloroacetic acid aqueous solution (40 μL) was added to the obtained plasma (200 μl), followed by mixing and centrifugation. The SAM concentration in the obtained supernatant was analyzed by HPLC.

[3] = Bioabsorbability of dried yeast cells containing (SS)-SAM, oral administration (Example 4); assay type: in vivo; conditions: SD rats, 20 g/L SAM at 5 ml/kg b.w.
Description: The resultant was orally administered to rats in the same manner such that comparative control examples were obtained. Before administration and 1, 2, 3, 5, or 8 hours after administration, blood was collected from the jugular vein without any anesthesia and with the use of heparin as an anticoagulant. The plasma components were collected via centrifugation. A 0.4 g/L trichloroacetic acid aqueous solution (40 μL) was added to the obtained plasma (200 μL), followed by mixing and centrifugation. The SAM concentration in the obtained supernatant was analyzed by HPLC. FIG. 1 and table 4 show the results.

[4] = compound added at 30% by weight to dried yeast cells, 25° C., 7 days

Compound	SAM residual rate [1, 4] [%]	also measured
NC(=O)c1cccnc1 [Nicotinic-acid amide]	97.3	–
O=S(=O)([O-])[O-].[Mg+2] [Magnesium sulfate]	–	SAM residual rate [1]: 101.6%
CC(=O)N[C@H]1C(O)O[C@H](CO)[C@@H](O)[C@@H]1O (stereo partly drawn) [N-acetylglucosamine]	97.6	–
OC[C@@H](O)[C@H](O)[C@H](O)[C@@H](O)CO [Dulcitol]	92.2	–
Cl.N [Ammonium chloride]	95.6	–
Ferric chloride hexahydrate	95.7	–
Glycogen	94.6	–
O=C(O)c1cccnc1 [Nicotinic acid]	102.3	–
O=C1O[C@H]([C@@H](O)CO)C(O)=C1O [L-ascorbic acid]	90.0	–
C[S+](CC[C@H](N)C(=O)[O-])C[C@H]1O[C@@H](n2cnc3c(N)ncnc32)[C@H](O)[C@@H]1O.Cc1ccc(S(=O)(=O)O)cc1.O=S(=O)(O)O.O=S(=O)(O)O (stereo partly drawn) [SAM/p-toluenesulfonic acid/sulfate]	–	Area under SAM concentration curve (AUC) ([2]; AUC at 8 hours after administration, dried yeast cells of Example 5): 3200 ng·h/mL; Maximum SAM concentration in plasma ([2]; dried yeast cells of Example 5 (spray dried)): 0.771 µg/mL; Area under SAM concentration curve (AUC) ([3]; AUC at 8 hours after administration, dried yeast cells of Example 1): 3200 ng·h/mL; Maximum SAM concentration in plasma ([3]; dried yeast cells of Example 1 (lyophilized)): 0.771 µg/mL
Fructo-oligosaccharide	85.9	–
O=C(O)CC(O)C(=O)O (racemic) [DL-malic acid]	99.1	–
CCC(N)C(=O)O (racemic) [DL-α-amino-n-butyrate]	96.8	–
Inulin	93.1	–
[Ca+2].[Cl-].[Cl-] [Calcium chloride]	–	SAM residual rate [1]: 93.7%
CC(C)[C@H](N)C(=O)O [L-valine]	89.7	–
Cellulose	92.0	–
OC[C@@H](O)[C@@H](O)[C@H](O)[C@H](O)CO [Mannitol]	86.8	–
O=C(CO)[C@@H](O)[C@H](O)[C@@H](O)CO [L-sorbose]	88.4	–
O=P(O)(O)O [Phosphoric acid]	89.3	–
O=C(O)CC(O)(CC(=O)O)C(=O)O [Citric acid]	96.6	–
O=C[C@H](O)[C@@H](O)[C@@H](O)[C@H](O)CO [Galactose]	99.7	–
C[C@@H](O)[C@H](N)C(=O)O [L-threonine]	92.0	–

Compound	SAM residual rate [1, 4] [%]	also measured
Cc1ncc(C[n+]2csc(CCO)c2C)c(N)n1 [thiamine hydrochloride]	99.5	–
NCC(=O)O [Glycine]	97.5	–
C[C@H](N)C(=O)O [L-alanine]	86.9	–
OC[C@@H](O)[C@H](O)[C@H](O)[C@@H](O)CO [Galactitol]	90.7	–
O=S(=O)([O-])[O-].[Cu+2] [Copper sulfate]	–	SAM residual rate [1]: 94.2%
CSCC[C@H](N)C(=O)O [L-methionine]	100.9	–
N.N.O=S(=O)(O)O [Ammonium sulfate]	87.5	–
O=C([O-])[C@H](O)[C@@H](O)[C@H](O)[C@H](O)CO.[Na+] [Sodium gluconate]	89.1	–
O=S(=O)([O-])[O-].[Zn+2] [Zinc sulfate]	–	SAM residual rate [1]: 94.3%
O=C1O[C@H](CO)[C@@H](O)[C@H](O)[C@H]1O [Glucono-δ-lactone]	100.7	–
O[C@H]1[C@H](O)[C@@H](O)[C@H](O)[C@@H](O)[C@H]1O [Inositol]	96.2	–
Isomalto-oligosaccharide	84.9	–
O=C(O)[C@H](O)[C@@H](O)C(=O)O [L-tartaric acid]	88.1	–
OC[C@H]1O[C@@H](O[C@H]2[C@H](O)[C@@H](O)[C@H](O)O[C@@H]2CO)[C@H](O)[C@@H](O)[C@@H]1O [D-cellobiose]	93.1	–
OC[C@@H](O)[C@@H](O[C@@H]1O[C@H](CO)[C@H](O)[C@H](O)[C@H]1O)[C@H](O)[C@@H](O)CO [Lactitol]	91.3	–
O.O.O.O.O.O.O.O=S(=O)([O-])[O-].[Fe+2] [Ferrous sulfate heptahydrate]	–	SAM residual rate [1]: 90.4%
CC(C)C[C@@H](N)C(=O)O [D-leucine]	91.9	–
OC[C@@H](O)[C@@H](O)[C@H](O)[C@@H](O)CO [Sorbitol]	98.2	–
O=S(=O)([O-])[O-].[Mn+2] [Manganese sulfate]	95.0	–
OC[C@H]1O[C@@](CO)(O[C@H]2O[C@H](CO)[C@@H](O)[C@H](O)[C@H]2O)[C@@H](O)[C@@H]1O [Sucrose]	93.8	–
NC(=O)CC[C@H](N)C(=O)O [L-glutamine]	94.5	–
N.O=P(O)(O)O [Ammonium dihydrogen phosphate]	–	SAM residual rate [1]: 93.6%
